Each structure is given as a SMILES string.

The values below come from EP0478235A2, “A directed biosynthesis for an immunomycin derivative” (MERCK & CO. INC., priority 1990, dated 1992).

This assay has as its system T lymphocytes. Briefly: T-cell proliferation assay (tritiated thymidine incorporation, ionomycin + PMA stimulation). It is filed as cell-based, C57B1/6 mice. To be noted: T-lymphocyte. Here is the method:
Purified compound, or fractions, prepared by HPLC, was dissolved in absolute ethanol at a final concentration of 100 µg/ml.
Spleens from C57B1/6 mice were taken under sterile conditions and gently dissociated in ice-cold RPMI 1640 culture medium (GIBCO, Grand Island, N. Y.) supplemented with 10% heat-inactivated fetal calf serum (GIBCO). Cells were pelleted by centrifugation at 1500 rpm for 8 minutes. Contaminating red cells were removed by treating the pellet with ammonium chloride lysing buffer (GIBCO) for 2 minutes at 4°C. Cold medium was added and cells were again centrifuged at 1500 rpm for 8 minutes. T lymphocytes were then isolated by separation of the cell suspension on nylon wool columns as follows: Nylon wool columns were prepared by packing approximately 4 grams of washed and dried nylon wool into 20 ml plastic syringes. The columns were sterilized by autoclaving at 250°F for 30 minutes. Nylon wool columns were wetted with warm (37°C) culture medium and rinsed with the same medium. Washed spleen cells resuspended in warm medium were slowly applied to the nylon wool. The columns were then incubated in an upright position at 37°C for 1 hour. Non-adherent T lymphocytes were eluted from the columns with warm culture medium and the cell suspensions were spun as above.
Purified T lymphocytes were resuspended at […] in complete culture medium composed of RPMI 1640 medium with 10% heat-inactivated fetal calf serum, […], 1mM sodium pyruvate, 2 x 10⁻⁵M 2-mercaptoethanol and 50 µg/ml gentamycin. Ionomycin was added at 250 ng/ml and PMA at 10 ng/ml. The cell suspension was immediately distributed into 96 well flat-bottom microculture plates (Costar) at 200 µl/well. The control, being the medium without test drug, and various below-indicated dilutions of the sample (above-described purified prolylimmunomycin) to be tested were then added in triplicate wells at 20 µl/well. FK-520 was used as a standard. The culture plates were then incubated at 37°C in a humidified atmosphere of 5% CO₂-95% air for 44 hours. The proliferation of T lymphocytes was assessed by measurement of tritiated thymidine incorporation. After 44 hours of culturing, the cells were pulse-labelled with 2 µCi/well of tritiated thymidine (NEN, Cambridge, MA). After another 4 hours of incubation, cultures were harvested on glass fiber filters using a multiple sample harvester. Radioactivity of filter discs corresponding to individual wells as measured by standard liquid scintillation counting methods (Betacounter). Mean counts per minute of replicate wells were calculated and the results expressed as percent inhibition of tritiated thymidine uptake (profileration) as follows: Inhibition = 100 -(Mean cpm sample tested X 100.)/(Mean cpm control medium) [formula]

For the molecule `CC[C@@H]1/C=C(\C)C[C@H](C)C[C@H](OC)[C@H]2O[C@@](O)(C(=O)C(=O)N3CCCC[C@H]3C(=O)O[C@H](/C(C)=C/[C@@H]3CC[C@@H](O)[C@H](OC)C3)[C@H](C)[C@@H](O)CC1=O)[C@H](C)C[C@@H]2OC` [FK-520, immunomycin], where the note is “Mus musculus, 4 ng/ml, standard”, the inhibition at 0.004 µg/mL was determined as 99%.

As to `CC[C@@H]1/C=C(\C)C[C@H](C)C[C@H](OC)[C@H]2O[C@@](O)(C(=O)C(=O)N3CCC[C@H]3C(=O)O[C@H](/C(C)=C/[C@@H]3CC[C@@H](O)[C@H](OC)C3)[C@H](C)[C@@H](O)CC1=O)[C@H](C)C[C@@H]2OC` [Prolyl-Immunomycin, prolyl-immunomycin], the inhibition at 0.0019 µg/mL (1.9 ng/ml, mouse T cell cultures pulsed with 3H-thymidine for 4 hours prior to harvesting at 48 hours) came out at 8.2%. For the same molecule, for the setting “3.9 ng/ml, mouse T cell cultures pulsed with 3H-thymidine for 4 hours prior to harvesting at 48 hours”, the inhibition at 0.0039 µg/mL worked out at 47%. Further, the inhibition at 0.0078 µg/mL (7.8 ng/ml, mouse T cell cultures pulsed with 3H-thymidine for 4 hours prior to harvesting at 48 hours) was 84.8%. In addition, where the note is “15.5 ng/ml, mouse T cell cultures pulsed with 3H-thymidine for 4 hours prior to harvesting at 48 hours”, the inhibition at 0.0155 µg/mL is 94.3%. For the same molecule, the inhibition at 0.031 µg/mL (31.0 ng/ml, mouse T cell cultures pulsed with 3H-thymidine for 4 hours prior to harvesting at 48 hours) was found to be 96.3%. The inhibition at 0.062 µg/mL (62.0 ng/ml, mouse T cell cultures pulsed with 3H-thymidine for 4 hours prior to harvesting at 48 hours) came to 97.8%.
